One data set is described as follows: Particle size distribution. In kind it is physicochemical. The conditions noted are these: crystallized using ethyl acetate as taught in U.S. Pat. No. 5,399,578, after passing through 30 mesh sieve.
On to `CCCCC(=O)N(Cc1ccc(-c2ccccc2-c2nnn[nH]2)cc1)[C@H](C(=O)O)C(C)C` [Valsartan, N-(1-Oxopentyl)-N-[[2′-(1H-tetrazol-5-yl)[1,1′-biphenyl]-4-yl]methyl]-L-valine], for which the “Particle size distribution d10” value was found to be 5.039 μ, the “Particle size distribution d50” value stood at 77.29 μ and the “Particle size distribution d90” value is 383.55 μ.

Still in this data set, the particulars now being: solid obtained by the process of the example.
As to `CCCCC(=O)N(Cc1ccc(-c2ccccc2-c2nnn[nH]2)cc1)[C@H](C(=O)O)C(C)C` [Example 1, Valsartan], the “Particle size distribution d10” value turned out to be 1.906 μ, the “Particle size distribution d50” value worked out at 4.134 μ and the “Particle size distribution d90” value stood at 7.554 μ.

For `CCCCC(=O)N(Cc1ccc(-c2ccccc2-c2nnn[nH]2)cc1)[C@H](C(=O)O)C(C)C` [Example 4, Valsartan], the “Particle size distribution d10” value worked out at 2.011 μ, the “Particle size distribution d50” value was 4.636 μ and the “Particle size distribution d90” value is recorded as 8.611 μ.

Regarding `CCCCC(=O)N(Cc1ccc(-c2ccccc2-c2nnn[nH]2)cc1)[C@H](C(=O)O)C(C)C` [Example 2, Valsartan], the “Particle size distribution d10” value was 1.686 μ, the “Particle size distribution d50” value is 4.420 μ and the “Particle size distribution d90” value worked out at 8.684 μ.

As to `CCCCC(=O)N(Cc1ccc(-c2ccccc2-c2nnn[nH]2)cc1)[C@H](C(=O)O)C(C)C` [Example 5 B, Valsartan], the “Particle size distribution d10” value worked out at 0.71 μ, the “Particle size distribution d50” value is listed as 2.687 μ and the “Particle size distribution d90” value is on record as 8.42 μ.

For `CCCCC(=O)N(Cc1ccc(-c2ccccc2-c2nnn[nH]2)cc1)[C@H](C(=O)O)C(C)C` [Example 3, Valsartan], the “Particle size distribution d10” value amounted to 1.5421 μ, the “Particle size distribution d50” value came out at 3.850 μ and the “Particle size distribution d90” value stood at 7.869 μ.

`CCCCC(=O)N(Cc1ccc(-c2ccccc2-c2nnn[nH]2)cc1)[C@H](C(=O)O)C(C)C` [Example 5 A, Valsartan]: the “Particle size distribution d10” value was 1.869 μ, the “Particle size distribution d50” value stood at 18.401 μ and the “Particle size distribution d90” value came out at 202 μ.

Source of the values: patent publication US20090304797A1, “Process for the Preparation of Micronized Valsartan” (priority 2006, published 2009).
